Experimental data published in ChEMBL document CHEMBL1201862, “PubChem BioAssay data set” (2004).
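Dose response: 5 concentrations. Exposure: 48 h. Format: 96-well plates. Endpoint: linear interpolation; highest concentration if not reached. Abbreviation: GI50, concentration required for 50% inhibition of growth.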 Active and inactive are the calls of the source. Rule as the data show it: active = GI50 up to about 1.1 µM and inactive = higher.

Legend:
Assay in all cases: NCI anticancer screen, dose series, 48 h
RXF 393 = tested on: RXF 393
HCT-15 = tested on: HCT-15
EKVX = tested on: EKVX
CAKI-1 = tested on: CAKI-1
TK-10 = tested on: TK-10
BT-549 = tested on: BT-549
HT-29 = tested on: HT-29
OVCAR-4 = tested on: OVCAR-4
NCI-H226 = tested on: NCI-H226
MDA-MB-231 = tested on: MDA-MB-231
A549 = tested on: A549
HL-60 = tested on: HL-60
SN12C = tested on: SN12C
UACC-62 = tested on: UACC-62
IGROV-1 = tested on: IGROV-1
NCI-H460 = tested on: NCI-H460
OVCAR-8 = tested on: OVCAR-8
SR = tested on: SR
SK-MEL-5 = tested on: SK-MEL-5
SK-MEL-28 = tested on: SK-MEL-28

For `CC1(C)CC(=O)C(=CNc2nc(-c3cccc([N+](=O)[O-])c3)cs2)C(=O)C1`, the GI50 (RXF 393) was 21.7 µM (inactive), the GI50 (HCT-15) was 11.6 µM and the GI50 (EKVX) was 14.7 µM (inactive). The GI50 (CAKI-1) was 11.3 µM (inactive), the GI50 (TK-10) was 35.8 µM (inactive) and the GI50 (BT-549) was 18.7 µM (inactive). For the same compound, the GI50 (HT-29) was 17 µM (inactive), the GI50 (OVCAR-4) was 27.5 µM (inactive) and the GI50 (NCI-H226) was 15.3 µM (inactive). The GI50 (MDA-MB-231) was 18.5 µM (inactive), the GI50 (A549) was 66.1 µM (inactive) and the GI50 (HL-60) was 7.52 µM (inactive). For the same compound, the GI50 (SN12C) was 18.1 µM (inactive), the GI50 (UACC-62) was 16 µM (inactive) and the GI50 (IGROV-1) was 17.6 µM (inactive). For the same compound, the GI50 (NCI-H460) was 14.7 µM (inactive) and the GI50 (OVCAR-8) was 23.7 µM (inactive).
With `COC1=CC(=Nc2c(Cl)cc(Cl)cc2OC(=O)c2ccc([N+](=O)[O-])cc2)C=C(OC)C1=O` the GI50 (RXF 393) was 12.1 µM (inactive), the GI50 (HCT-15) was 5.97 µM and the GI50 (EKVX) was 16 µM (inactive). The GI50 (CAKI-1) was 16.9 µM (inactive), the GI50 (TK-10) was 22.8 µM (inactive) and the GI50 (HT-29) was 18.4 µM (inactive). For the same compound, the GI50 (OVCAR-4) was 10 µM (inactive), the GI50 (NCI-H226) was 15.2 µM (inactive) and the GI50 (A549) was 9.77 µM (inactive). The GI50 (HL-60) was 1.83 µM (inactive), the GI50 (SN12C) was 11.8 µM (inactive) and the GI50 (SR) was 3.22 µM (inactive). For the same compound, the GI50 (UACC-62) was 4.26 µM (inactive), the GI50 (SK-MEL-5) was 7.05 µM (inactive) and the GI50 (SK-MEL-28) was 16.7 µM (inactive). For the same compound, the GI50 (IGROV-1) was 14.5 µM (inactive), the GI50 (NCI-H460) was 14.4 µM (inactive) and the GI50 (OVCAR-8) was 7.35 µM (inactive).
In the case of `COC(=O)C1=COC2OC3C(C(C)O)C(=O)OC34C=CC1C24` (stereo not given), the GI50 (HCT-15) is reported as 31.9 µM, the GI50 (EKVX) is reported as 81.7 µM (inactive) and the GI50 (CAKI-1) is reported as 55 µM (inactive). For the same compound, the GI50 (TK-10) was 61.2 µM (inactive), the GI50 (BT-549) was 40.4 µM (inactive) and the GI50 (HT-29) was 44 µM (inactive). For the same compound, the GI50 (OVCAR-4) was > 100 µM (inactive), the GI50 (NCI-H226) was > 100 µM (inactive) and the GI50 (MDA-MB-231) was > 100 µM (inactive). For the same compound, the GI50 (A549) was > 100 µM (inactive), the GI50 (HL-60) was 15.5 µM (inactive) and the GI50 (SN12C) was 50.1 µM (inactive). For the same compound, the GI50 (UACC-62) was 29.3 µM (inactive), the GI50 (SK-MEL-5) was 57 µM (inactive) and the GI50 (SK-MEL-28) was 31 µM (inactive). For the same compound, the GI50 (IGROV-1) was 71.6 µM (inactive), the GI50 (NCI-H460) was 49.2 µM (inactive) and the GI50 (OVCAR-8) was 20.9 µM (inactive).
`N#Cc1ccccc1NC(=O)C(=O)C1NC(=S)NC1=O` (stereo not given) was tested, and the GI50 (RXF 393) was > 100 µM (inactive), the GI50 (HCT-15) was > 100 µM and the GI50 (EKVX) was > 100 µM (inactive). For the same compound, the GI50 (CAKI-1) was > 100 µM (inactive), the GI50 (TK-10) was > 100 µM (inactive) and the GI50 (HT-29) was > 100 µM (inactive). For the same compound, the GI50 (OVCAR-4) was > 100 µM (inactive), the GI50 (NCI-H226) was > 100 µM (inactive) and the GI50 (A549) was > 100 µM (inactive). For the same compound, the GI50 (HL-60) was > 100 µM (inactive), the GI50 (SN12C) was > 100 µM (inactive) and the GI50 (SR) was > 100 µM (inactive). For the same compound, the GI50 (UACC-62) was > 100 µM (inactive), the GI50 (SK-MEL-5) was > 100 µM (inactive) and the GI50 (SK-MEL-28) was > 100 µM (inactive). For the same compound, the GI50 (IGROV-1) was > 100 µM (inactive), the GI50 (NCI-H460) was > 100 µM (inactive) and the GI50 (OVCAR-8) was > 100 µM (inactive).
`CC(=O)c1sc2c(c1O)c(=O)n(-c1ccccc1)c(=S)n2-c1ccccc1` was tested, and the GI50 (RXF 393) was > 100 µM (inactive), the GI50 (HCT-15) was > 100 µM and the GI50 (TK-10) was > 100 µM (inactive). The GI50 (BT-549) was 95.3 µM (inactive), the GI50 (HT-29) was > 100 µM (inactive) and the GI50 (OVCAR-4) was > 100 µM (inactive). The GI50 (NCI-H226) was > 100 µM (inactive), the GI50 (MDA-MB-231) was > 100 µM (inactive) and the GI50 (A549) was > 100 µM (inactive). The GI50 (HL-60) was > 100 µM (inactive), the GI50 (SN12C) was > 100 µM (inactive) and the GI50 (UACC-62) was > 100 µM (inactive). The GI50 (SK-MEL-5) was > 100 µM (inactive), the GI50 (SK-MEL-28) was > 100 µM (inactive) and the GI50 (IGROV-1) was > 100 µM (inactive). For the same compound, the GI50 (NCI-H460) was > 100 µM (inactive) and the GI50 (OVCAR-8) was > 100 µM (inactive).
With `Cc1ccc(-c2c(C#N)c(-c3ccc(C)cc3)n(NS(=O)(=O)c3ccccc3)c(=O)c2C#N)cc1` the GI50 (RXF 393) was 35.3 µM (inactive), the GI50 (HCT-15) was 39.4 µM and the GI50 (EKVX) was 56.6 µM (inactive). The GI50 (CAKI-1) was 83.8 µM (inactive), the GI50 (TK-10) was 76.2 µM (inactive) and the GI50 (BT-549) was 25.4 µM (inactive). The GI50 (HT-29) was 41.7 µM (inactive), the GI50 (OVCAR-4) was 40.6 µM (inactive) and the GI50 (NCI-H226) was > 100 µM (inactive). For the same compound, the GI50 (MDA-MB-231) was > 100 µM (inactive), the GI50 (A549) was 41.2 µM (inactive) and the GI50 (SN12C) was 62.2 µM (inactive). The GI50 (UACC-62) was 34.1 µM (inactive), the GI50 (SK-MEL-5) was 16 µM (inactive) and the GI50 (SK-MEL-28) was 49.2 µM (inactive). For the same compound, the GI50 (IGROV-1) was 44.5 µM (inactive), the GI50 (NCI-H460) was 40.9 µM (inactive) and the GI50 (OVCAR-8) was 69.2 µM (inactive).
For `CC(=O)Oc1ccc2c(C)cc(=O)oc2c1OC(C)=O`, the GI50 (HCT-15) was 21.1 µM, the GI50 (EKVX) was 48 µM (inactive) and the GI50 (TK-10) was 24.2 µM (inactive). For the same compound, the GI50 (HT-29) was 29.9 µM (inactive), the GI50 (OVCAR-4) was 46.8 µM (inactive) and the GI50 (NCI-H226) was 30.6 µM (inactive). For the same compound, the GI50 (MDA-MB-231) was 48.9 µM (inactive), the GI50 (A549) was 38.4 µM (inactive) and the GI50 (SN12C) was 57.8 µM (inactive). The GI50 (SR) was 17.3 µM (inactive), the GI50 (UACC-62) was 49.1 µM (inactive) and the GI50 (SK-MEL-5) was 37.8 µM (inactive). For the same compound, the GI50 (SK-MEL-28) was 33.9 µM (inactive), the GI50 (IGROV-1) was 22.3 µM (inactive) and the GI50 (OVCAR-8) was 27 µM (inactive).
With `Clc1ccc(Cl)c(/N=N\c2cc3c4c(c2)CCN4CCC3)c1` the GI50 (RXF 393) was 8.65 µM (inactive), the GI50 (HCT-15) was > 10 µM and the GI50 (EKVX) was > 10 µM (inactive). The GI50 (CAKI-1) was > 10 µM (inactive), the GI50 (TK-10) was > 10 µM (inactive) and the GI50 (HT-29) was > 10 µM (inactive). For the same compound, the GI50 (OVCAR-4) was > 10 µM (inactive), the GI50 (NCI-H226) was > 10 µM (inactive) and the GI50 (MDA-MB-231) was > 10 µM (inactive). The GI50 (A549) was > 10 µM (inactive), the GI50 (HL-60) was > 10 µM (inactive) and the GI50 (SN12C) was > 10 µM (inactive). The GI50 (SR) was > 10 µM (inactive), the GI50 (UACC-62) was > 10 µM (inactive) and the GI50 (SK-MEL-5) was > 10 µM (inactive). For the same compound, the GI50 (SK-MEL-28) was > 10 µM (inactive), the GI50 (IGROV-1) was > 10 µM (inactive) and the GI50 (NCI-H460) was > 10 µM (inactive). The GI50 (OVCAR-8) was > 10 µM (inactive).
